Reference: patent publication US4452812A, “Organic complex of platinum, its preparation and its use for treating malignant tumors” (Sanofi, priority 1980, dated 1984)
“Also recorded” adds a separate entry of the source.

Key:
[1] = tested on: leukemia L 1210; experiment: Anti-tumour activity, leukemia L 1210, s.c. graft, i.p. treatment; assay type: in vivo, mouse; settings: s.c. graft 10^6 cells
Method: (§1) I. […] L 1210: Ascite and Solid
(c) s.c. graft--i.p. treatment
10^6 cells were grafted under the skin behind the head on D0 and intraperitoneal treatment was carried out in one single injection either on D1 or on D4.
(§2) The solutions of these compounds were prepared extemporaneously.

[2] = tested on: mouse; experiment: Acute toxicity in the mouse; assay type: in vivo, mouse (Swiss female); settings: for loss of weight on the 4th day: i.p.
Method: (§3) Acute toxicity, one single injection of the compound, was measured using Swiss female mice (Evic-Ceba, Bordeaux) of 21 to 23 g. and Sprague-Dawley rats. Ten animals were treated for each dose studied.

[3] = tested on: leukemia L 1210; experiment: Anti-tumour activity, leukemia L 1210, i.p. graft, i.p. treatment
Method: […] females (CNRS, Orleans) of 20 to 22 g
(a) i.p. graft--i.p. treatment
10^5 cells were grafted intraperitoneally on D0 and intraperitoneal treatment was carried out 24 hours later, D1, in one single injection.
PHD and PHM were suspended in a 4% Klucel (hydroxy propyl cellulose) solution (the word "Klucel" is a registered trademark of Hercules Incorporated, Delaware, U.S.A.).
The solutions of these compounds were prepared extemporaneously. The increase in life span, ILS (%), were calculated in comparison with the controls by the following formula: [formula] Deaths were recorded until day 30 for L 1210 tumour and until day 60 for S180 tumour.

[4] = tested on: rat; experiment: Acute toxicity in the rat; assay type: in vivo, rat (Sprague-Dawley)
Method: as §3

[5] = tested on: leukemia L 1210; experiment: Anti-tumour activity, leukemia L 1210, i.p. graft, i.v. treatment; assay type: in vivo, mouse; settings: for ILS: i.p. graft 10^5 cells
Method: as §1
(b) i.p. graft--i.v. treatment
as §2

[6] = tested on: DNA; experiment: Platinum fixed on DNA of L 1210 cells in vivo; design: species or system mouse (DBA/2); settings: PDD 9 mg/kg, PHIC 150 mg/kg; two hours after treatment on D3
Method: DBA/2 mice received 10^6 L 1210 cells on D0 and were treated three days later with an amount of platinum compound equal to the LD0 in the healthy mouse. Two hours after treatment on D3, the animals were sacrificed. […] Platinum was monitored by atomic absorption for whole cells and also on the DNA which was purified by phenol extraction. […] Under these conditions, one fixed platinum atom per 3000 nucleotides was found, i.e. a total of 1% of the amount which penetrated the cells was complexed to DNA. […] 10^-16 of platinum per cell.

[7] = tested on: sarcoma S 180; experiment: Anti-tumour activity, sarcoma S 180 ascite, i.p. graft, i.p. treatment; assay type: in vivo, mouse (Swiss female); settings: for ILS: single i.p. on D1
Method: Swiss female mice (Evic-Ceba, Bordeaux) of 20 to 22 g
10^6 cells intraperitoneally grafted on D0
intraperitoneal treatment 24 hours later, D1, in one single injection.
as §2

[8] = tested on: L 1210 cells; experiment: Cellular penetration of platinum in vivo into L 1210 cells; design: species or system mouse (DBA/2); settings: PHIC 150 mg/kg, two hours after treatment on D3
Method: DBA/2 mice received 10^6 L 1210 cells on D0 and were treated three days later with an amount of platinum compound equal to the LD0 in the healthy mouse. Two hours after treatment on D3, the animals were sacrificed. About 20.10^6 cells were extracted from the peritoneum and washed several times so as to eliminate the extra-cellular platinum and also any intracellular platinum which was not bound in a covalent manner with the cellular organelles. Platinum was monitored by atomic absorption for whole cells and also on the DNA which was purified by phenol extraction. […] This corresponds to 180.10^-16 g of platinum per leukemic cell. Under these conditions, one fixed platinum atom per 3000 nucleotides was found, i.e. a total of 1% of the amount which penetrated the cells was complexed to DNA. […] 10^-16 of platinum per cell.

[9] = tested on: renal and hepatic parenchyma; experiment: Renal and hepatic toxicity; assay type: in vivo, mouse (Swiss female)
Method: It was thus of interest to compare the effects of the novel compound of the invention with those of the already known compounds listed above on the kidney and the liver, i.e. the organs in which the greatest amount of platinum accumulates.
Swiss female mice (Evic-Ceba, Bordeaux) of 20 to 22 g were treated by intraperitoneal route D0 and then sacrificed on D1, D4 and D10.
Slices 5 microns thick were coloured with hemalun eosine stain.

[10] = tested on: L 1210 cells; experiment: Cytotoxicity on L 1210 cells in culture; assay type: cell-based; settings: read-out: ID50 (reduces by 50% the rate of growth of the cells); usually 24 to 48 hours contact
[11] = tested on: baboon (ear, Corti organ); experiment: Ototoxicity test in the baboon (auditory potentials, echocochleography); assay type: in vivo; settings: baboon No 3, 200 mg/kg, D31
Method: An ototoxicity test was carried out on baboon No. 3 (200 mg/kg) on D31. This test comprised the following: (a) Registering the auditory potentials when the ear was submitted to 1500 stimuli at 90, 80, 70, 60, 50, 40, 30, 20 and 10 decibels. The results gave the latency times for conduction from the ear to the brain. (b) Performing the same kind of test by echocochleography. This analysis was much more accurate than the previous one because it was only carried out in the Corti organ (cochlea). Frequencies of 8000, 4000, 2000 and 1000 Hertz at 90, 70, 50, 30, 20 and 10 decibels were used. Measurements were made using a Racia Medelec Empled MK4 1026. […] The properties of PHIC compared to those of PDD can be summarized as follows: […]

Work on NC1CCCCC1N.O=C([O-])CC(C(=O)[O-])C([O-])C(=O)[O-].[H+].[H+].[Pt+2] (stereo not drawn) [PHIC, cis-isocitrato (1,2-diaminocyclohexane) platinum (II)] yielded an ILS ([1]; 62.5 mg/kg i.p. on D1) of 26%, an ILS ([1]; 62.5 mg/kg i.p. on D4) of 17% and an ILS ([1]; 125 mg/kg i.p. on D4) of 50%. For the same compound, the “loss of weight on the 4th day” value ([2]; LD10 dose) was 3.5 g, the “loss of weight on the 4th day” value ([2]; LD50 dose) was 4.3 g and the “toxicity (in words)” value ([2]; mice) was “Extremely low toxicity”. For the same compound, the LD10 ([2]; mouse, I.P.) was 135 mg/kg, the LD50 ([2]; mouse, I.P.) was 236 mg/kg and the LD90 ([2]; mouse, I.P.) was 365 mg/kg. For the same compound, the LD10 ([2]; mouse, I.V.) was 348 mg/kg, the LD50 ([2]; mouse, I.V.) was 421 mg/kg and the LD90 ([2]; mouse, I.V.) was 489 mg/kg. The LD50 ([2]; mouse, P.O.) was > 1 000 mg/Kg, the “LD10 (dose killing 10% of the animals)” value ([2]; mouse, one single injection, Table V) was 153 mg/kg and the ILS ([3]; 5 mg/kg, single i.p. on D1) was 16%. It also gave an ILS ([3]; 10 mg/kg, single i.p. on D1) of 40%, an ILS ([3]; 25 mg/kg, single i.p. on D1) of 59% and an ILS ([3]; 50 mg/kg, single i.p. on D1) of 79%. For the same compound, the toxic death ([3]; 100 mg/kg i.p., excluded from ILS calculation) was “one toxic death”, the ILS ([3]; 100 mg/kg, single injection on D1) was 129% and the Survivals ([3]; L 1210, 5 mg/kg i.p. on D1, day 30) was 0%. For the same compound, the Survivals ([3]; L 1210, 10 mg/kg i.p. on D1, day 30) was 0%, the Survivals ([3]; L 1210, 25 mg/kg i.p. on D1, day 30) was 0% and the Survivals ([3]; L 1210, 50 mg/kg i.p. on D1, day 30) was 0%. The Survivals ([3]; L 1210, 100 mg/kg i.p. on D1, day 30) was 20%, the “anti-tumour activity (in words)” value ([3]; leukemia L 1210) was “Very marked anti-tumor activity; also recorded: exerts the anti-tumour activity” and the “Surviving animals having received L 1210 leukaemia and S 180 sarcoma” value ([3]; summary for L 1210 and S 180) was “Yes”. For the same compound, the LD10 ([4]; I.P.) was 61 mg/kg, the LD50 ([4]; I.P.) was 143 mg/kg and the LD90 ([4]; I.P.) was 278 mg/kg. The LD10 ([4]; I.V.) was 111 mg/kg, the LD50 ([4]; I.V.) was 173 mg/kg and the LD90 ([4]; I.V.) was 244 mg/kg. For the same compound, the LD50 ([4]; P.O.) was > 1 000 mg/Kg, the “anti-tumour activity (in words)” value ([5]; graft intraperitoneal, treatment intravenous) was “active” and the ILS ([5]; 50 mg/kg i.v. on D1) was 25%. The ILS ([5]; 125 mg/kg i.v. on D1) was 41%, the “Number of fixed platinum atoms per nucleotide on DNA” value [6] was 1/3500 and the “amount that penetrated the cells which was complexed to DNA” value [6] was 1%. For the same compound, the “nucleotides per one fixed platinum atom” value [6] was 3500 nucleotides, the ILS ([7]; 10 mg/kg) was 29% and the ILS ([7]; 25 mg/kg) was 46%. The ILS ([7]; 50 mg/kg) was 112%, the ILS ([7]; 100 mg/kg) was 171% and the Survivals ([7]; S 180, 10 mg/kg i.p. on D1, day 60) was 0%. It also gave a Survivals ([7]; S 180, 25 mg/kg i.p. on D1, day 60) of 0%, a Survivals ([7]; S 180, 50 mg/kg i.p. on D1, day 60) of 20% and a Survivals ([7]; S 180, 100 mg/kg i.p. on D1, day 60) of 40%. For the same compound, the “anti-tumour activity (in words)” value ([7]; sarcoma S 180) was “Very marked anti-tumor activity; also recorded: exerts the anti-tumour activity”, the “Amount of penetrating platinum per cell” value ([8]; PDD 9 mg/kg) was 7e-14 g and the “platinum per cell” value [8] was 700. 10^-16. The nephrotoxicity ([9]; LD0 level, mice) was “No”, the renal lesion ([9]; at a dose 20 times greater than that of PDD) was “does not cause any renal lesion” and the “renal and hepatic alterations” value ([9]; i.p. at ~LD0 (mg/kg): PDD 8, PAC 100, PHM 50, PHD 4, PHS 5, PHC 120, PHIC 150, D1, D4, D10) was “did not provoke any significant alterations”. The IC50 [10] was 420 nM and the ototoxic effect [11] was “No ototoxic effect was detected”.
